Reference: US20240327320A1, “NOVEL ROUTES OF CHEMICAL SYNTHESIS OF 20S(OH)D3, 20S,25(OH)2D3, 20S,23S(OH)2D3, AND 20S,23R(OH)2D3 AND THEIR MODIFICATION OF THE IMMUNE ACTIVITY OF PBMCS” (United State Government as represen ted by the Department …, priority 2023, published 2024)

Legend:
[1] = test system: Human epidermal keratinocytes (HEKn); assay: Protein expression, immunofluorescence; type: cell-based; settings: 48 h, FIG. 7C
Procedure: HEKn were cultured until the third passage before treatment. Keratinocytes were plated in a 96-well plate and at 80% confluence, 10^-7 M secosteroids (or 0.1% ethanol control) were added and cells were incubated for 48 h. Cells were fixed and stained with anti-involucrin (1:20, GTX-14504; Genetex, Irvine, CA, USA) anti-CK10 (1:300, Santa Cruz Biotechnology), anti-catalase (1:200, Santa Cruz Biotechnology) or anti-CK14 antibody with Alexa Fluor® 488 (1:500, Santa Cruz Biotechnology) and imaged at 10× magnification in Cytation 5 reader as described before (Chaiprasongsuk A, et. al., (2020) Free Radic Biol Med 155 87-9845; Slominski A T, et. al., (2017) Sci Rep 7(1) 11434; Chaiprasongsuk A, et. al., (2020) Int J Mol Sci 21(24)). Nuclei were stained with blue DAPI. Fluorescence intensity was measured using the Cytation 5 reader and ImageJ, and data were analyzed using Graph Pad Prizm.
FIG. 7C and FIG. 7D represent protein expression studies. Values are presented as percentage of fluorescence positive cells (FIG. 7C) or as mean fluorescence per cell (% of all cells (FIG. 7D). The values in FIG. 7D were calculated as mean green fluorescence vs DAPI blue fluorescence measured in ImageJ. Data are means±SD (n=3) and were analyzed using Student's t-test with p<0.05 (*), p<0.01 (**) or p<0.001 (***).

[2] = molecular target: T1, Mouse CYP27B1 (Mus musculus, UniProt O35084); assay: CYP27B1 activity on secosteroids in phospholipid vesicles (1α-hydroxylation); type: in vitro ADME; settings: for 1α-hydroxylase activity: 0.025 mol secosteroid/mol phospholipid, CYP27B1 0.2 μM, mean±SD, n=3; for rate / efficiency of 1α-hydroxylation by CYP27B1, in words: phospholipid vesicles, mouse CYP27B1
T1 construct: made in house; host or cells: E. coli
T1 sequence (O35084 1-507): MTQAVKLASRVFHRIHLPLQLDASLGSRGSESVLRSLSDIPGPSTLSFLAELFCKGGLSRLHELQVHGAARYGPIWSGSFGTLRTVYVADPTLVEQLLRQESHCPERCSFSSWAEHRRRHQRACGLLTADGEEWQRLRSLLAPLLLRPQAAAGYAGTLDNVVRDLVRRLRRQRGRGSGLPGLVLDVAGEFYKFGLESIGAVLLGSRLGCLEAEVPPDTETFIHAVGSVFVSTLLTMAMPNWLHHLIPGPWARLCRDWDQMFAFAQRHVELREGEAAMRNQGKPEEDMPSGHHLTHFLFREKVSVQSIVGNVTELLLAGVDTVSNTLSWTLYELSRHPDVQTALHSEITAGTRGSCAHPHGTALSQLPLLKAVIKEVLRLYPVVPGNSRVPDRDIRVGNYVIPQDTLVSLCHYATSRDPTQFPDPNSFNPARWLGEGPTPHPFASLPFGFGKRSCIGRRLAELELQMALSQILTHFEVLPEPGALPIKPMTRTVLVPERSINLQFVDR
Procedure: Mouse CYP27B1 was expressed in E. coli and purified (Tang E K, et. al., (2010) Drug Metabolism and Disposition, 38(9) 1553-9). CYP27B1 activity was measured on substrate incorporated into the membrane of phospholipid vesicles as described previously. Briefly, phospholipid vesicles were prepared by sonication of dioleoyl phosphatidylcholine, cardiolipin and secosteroid. Vesicles (510 μM phospholipid) were then incubated at 37° C. with CYP27B1 (0.2 μM) in buffer comprising 20 mM Hepes, pH 7.4, 100 mM NaCl, 0.1 mM EDTA, 0.1 mM and dithiothreitol, adrenodoxin (15 μM), adrenodoxin reductase (0.4 μM), glucose-6-phosphate (2 mM), glucose-6-phosphate dehydrogenase (2 U/mL) and NAPDH (50 μM) in a volume of 0.5 ml. After reaction (5 or 20 min), the incubation mixture was extracted 3-times with 2.5 ml dichloromethane, extracts combined, dried under N2 gas and dissolved in 64% methanol. Samples were analysed by reverse phase HPLC on a Grace Alltima column (25×0.46 cm) using a gradient of 64 to 100% methanol for 15 min followed by 100% methanol for 30 min, at a flow rate of 0.5 ml/min. Metabolites were detected with a UV detector at 265 nm.
All four chemically synthesized secosteroids were converted to their expected 1α-hydroxy derivatives by CYP27B1, and identified on the basis of previous studies on the enzymatically and/or chemically derived substrates (Li W, et. al., (2010) Steroids 75(12) 926-35, Tang E K, et. al., (2013) Drug metabolism and disposition: the biological fate of chemicals 41(5) 1112-24, Lin Z, et. al., (2016) J Med Chem 59(10) 5102-8, Tang E K, et. al., (2010) Drug metabolism and disposition: the biological fate of chemicals 38(9) 1553-9). Secosteroids were incorporated into phospholipid vesicles at a ratio of 0.025 mol secosteroid/mol phospholipid and incubated with mouse CYP27B1 (0.2 μM) for 20 min for all substrates except 20S,25(OH)2D3 which was incubated for 5 min. Extracted samples were analyzed by reverse-phase HPLC. Data are mean±SD, n=3. […] In summary, the efficiency of metabolism of D3 derivatives by CYP27B1 is as follows: 20S,25(OH)2D3>>20S,23S(OH)2D3>20S(OH)D3=20S,23R(OH)2D3.

| Compound | protein levels of involucrin, CK10, CK14, and catalase [1] | 1α-hydroxylase activity ([2]; incubated 20 min) | rate / efficiency of 1α-hydroxylation by CYP27B1, in words [2] | 1α-hydroxylase activity ([2]; incubated 5 min) |
| --- | --- | --- | --- | --- |
| C=C1CC[C@H](O)C/C1=C/C=C1\CCC[C@@]2(C)[C@H]1CC[C@@H]2[C@@](C)(O)CCCC(C)C [20S(OH)D3, (20S)-20-Hydroxyvitamin D3] | increasing the levels of involucrin, CK10, CK14, and catalase | 0.135 ± 0.005 mol product/min/mol CYP27B1 | relatively poorer substrate for CYP27B1 |  |
| C=C1CC[C@H](O)C/C1=C/C=C1\CCC[C@@]2(C)[C@H]1CC[C@@H]2[C@@](C)(O)C[C@H](O)CC(C)C [20S,23R(OH)2D3, (20S,23R)-20,23-Dihydroxyvitamin D3] | increasing the levels of involucrin, CK10, CK14, and catalase | 0.117 ± 0.027 mol product/min/mol CYP27B1 |  |  |
| C=C1CC[C@H](O)C/C1=C/C=C1\CCC[C@@]2(C)[C@H]1CC[C@@H]2[C@@](C)(O)C[C@@H](O)CC(C)C [20S,23S(OH)2D3, (20S,23S)-20,23-Dihydroxyvitamin D3] | increasing the levels of involucrin, CK10, CK14, and catalase | 0.258 ± 0.020 mol product/min/mol CYP27B1 | metabolized approximately twice as fast as the non-natural 20S,23R-isomer |  |
| C=C1CC[C@H](O)C/C1=C/C=C1\CCC[C@@]2(C)[C@H]1CC[C@@H]2[C@@](C)(O)CCCC(C)(C)O [20S,25(OH)2D3, (20S)-20,25-Dihydroxyvitamin D3] | increasing the levels of involucrin, CK10, CK14, and catalase |  | high rate of 1α-hydroxylation | 7.98 ± 0.24 mol product/min/mol CYP27B1 |
